# Key:
# [1] = test system: EGFP reporter cells (C2C12 cells); experiment: EGFP-SSA assay: uptake of Cas9 protein/gRNA complex into cells (EGFP positive rate); assay type: cell-based, mouse; settings: Example 1; compound 250.0 mM; reaction solution 1 (550 mM sodium chloride, 1 mM HEPES, Cas9 protein/gRNA), 30 minutes
# From the text: EGFP-SSA assay: an abbreviation of EGFP-single strand annealing assay. The reporter cassette shown in FIG. 1 is inserted in EGFP reporter cells. In the middle of the EGFP sequence of the cassette, MmDMD-Ex51 sequence is inserted. Since the presence of MmDMD-Ex51 sequence, by which EGFP ORF is divided, EGFP protein is not usually translated. However, when target sequence of MmDMD-Ex51 is cleaved by Cas9 protein/gRNA complex, the upstream region (EG part) and the downstream region (FP part) of EGFP ORF are annealed via a homology area into a single strand, with the result that a full-length EGFP ORF emerges to produce EGFP protein. Based on this principle, the ratio of the number of cells producing EGFP is checked by the EGFP-SSA assay. In this manner, the amount of Cas9 protein/gRNA complex delivered to cells can be predicted.
# (§1) Cas9 protein (0.4 μg), tracrRNA (34.18 ng), MmDmd Ex51 crRNA (29.48 ng), a 1 M HEPES buffer (0.05 μL) and a 5 M aqueous sodium chloride solution (5.5 μL) were mixed and diluted with UltraPure DNase/RNase-Free Distilled Water up to a liquid volume of 37.5 μL so as to obtain final concentrations: 8 ng/μL Cas9 protein, 0.68 ng/μL tracrRNA, 0.59 ng/μL MmDmd Ex51 crRNA, 1 mM HEPES, 550 mM sodium chloride, and 250 mM compound. To this solution, a 1000 mM compound solution (12.5 μL) was added and the solution mixture was incubated at normal temperature for 15 minutes.
# as §1, with “buffer (2.5” for “buffer (0.05”, “solution (4.85” for “solution (5.5”, “crRNA, 50” for “crRNA, 1”, “HEPES, 485” for “HEPES, 550”, “minutes. Note that, in the cases where the final concentrations of the compound are 0.69 mM, 25 mM, 100 mM, 125 mM, 160 mM, 200 mM and 500 mM, the compound stock solution was diluted with UltraPure DNase/RNase-Free Distilled Water up to concentrations of 2.76 mM, 100 mM, 400 mM, 500 mM, 640 mM, 800 mM and 2000 mM, respectively, and then, added. […]” for “minutes.”
# Cas9 protein (2.0 μg), tracrRNA (170.9 ng), MmDmd Ex51 crRNA (147.4 ng), a 1 M HEPES buffer (12.5 μL), a 5 M aqueous sodium chloride solution (18.35 μL) and a 1 M aqueous GABA solution (62.5 μL) were mixed, diluted with UltraPure DNase/RNase-Free Distilled Water up to a liquid volume of 250 μL so as to obtain final concentrations: 8 ng/μL Cas9 protein, 0.68 ng/μL tracrRNA, 0.59 ng/μL MmDmd Ex51 crRNA, 50 mM HEPES, 250 mM GABA and 367 mM sodium chloride, and incubated at normal temperature for 15 minutes. Note that the addition amount of the 5 M aqueous sodium chloride solution was changed to 24.25 μL in the case of 485 mM sodium chloride and the addition amount was changed to 27.5 μL in the case of 550 mM sodium chloride, respectively.
# [2] = test system: EGFP reporter cells (C2C12 cells); experiment: Number of HOECHST cells detected (cell viability) in the EGFP-SSA assay; settings: Example 1; compound 250.0 mM vs 250 mM GABA positive control on the same plate; formula (2)
# Method: To each of the solutions, a complex of gRNA and Cas9 protein was further dissolved. Mouse myoblasts (C2C12 cells) were contacted with each of the solutions in vitro, and target gene cleavage activity and cell viability were evaluated.
structure (smiles),measurement,setting,value
NC(=O)N[C@@H](CC(=O)O)C(=O)O [N-Carbamyl-L-aspartic acid],Compound activity: EGFP positive rate (%),[1],8.53%
same,Relative ratio to GABA: Number of HOECHST cells,[2],1.19
